Molecules are shown by their SMILES. Calls of active or inactive are those of the source. No cut-off for these calls is given here.

The record followed here is ChEMBL document CHEMBL6109128, “Copper-KRAS-COX2 Axis: A Therapeutic Vulnerability in Pancreatic Cancer” (J Med Chem, 2025).

Series [1] relates to MIA PaCa-2. In words: Cytotoxicity against human MIA PaCa-2 cells by MTT assay. It counts as functional, cell-based.
Series [2] can be described thus: Metabolic stability in mouse liver microsome assessed as half life measured up to 60 mins by LC-MS/MS analysis. It counts as ADME. To be noted: liver microsomes.
A short description of series [3]: Metabolic stability in human liver microsome assessed as half life measured up to 60 mins by LC-MS/MS analysis. It counts as ADME. To be noted: liver microsomes.
The nature of series [4]: Toxicity in C57BL/6 mouse assessed as body weight loss at 20 to 40 mg/kg, ip administered for 28 days. It counts as organism-based. To be noted: in vivo, 672 h, dose 20-40 mg/kg, time 28 day.
Series [5] in a line: Drug metabolism in mouse plasma assessed as 5-(5-((6-fluoroquinolin-8-yl)carbamoyl)pyrazin-2-yl)-2-methyl-2,5-diazabicyclo[2.2.1]heptane 2-oxide metabolite formation by measuring Retention time measured after 1 hr by LC-MS/MS analysis. It counts as ADME, cell-free.
Series [6] in a line: Drug metabolism in mouse plasma assessed as 5-(2,5-diazabicyclo[2.2.1]heptan-2-yl)-N-(6-fluoroquinolin-8-yl)pyrazine-2-carboxamide metabolite formation by measuring Retention time measured after 1 hr by LC-MS/MS analysis. It counts as ADME, cell-free.
Series [7] can be described thus: Drug metabolism in mouse plasma assessed as 5-(5-methyl-2,5-diazabicyclo[2.2.1]hept-3-en-2-yl)pyrazine-2-carbaldehyde metabolite formation by measuring Retention time measured after 1 hr by LC-MS/MS analysis. It counts as ADME, cell-free.
A short description of series [8]: Drug metabolism in mouse plasma assessed as 6-fluoro-8-isocyanatoquinoline metabolite formation by measuring Retention time measured after 1 hr by LC-MS/MS analysis. It counts as ADME, cell-free.
The nature of series [9]: Drug metabolism in mouse plasma assessed as 6-fluoroquinolin-8-amine metabolite formation by measuring Retention time measured after 1 hr by LC-MS/MS analysis. It counts as ADME, cell-free.
Series [10] is described as follows: Drug metabolism in mouse plasma assessed as retention time measured after 1 hr by LC-MS/MS analysis. It counts as ADME, cell-free.
Another series has as its system PANC-1. The series is described as follows: Cytotoxicity against human PANC-1 cells by MTT assay. It counts as functional, cell-based.
Another series has as its system BXPC-3. In words: Cytotoxicity against human BXPC-3 cells by MTT assay. It counts as functional, cell-based.
In the next series the test system is Panc02. The series is described as follows: Cytotoxicity against mouse Panc02 cells by MTT assay. It counts as functional, cell-based.
For another series, the system named is SU.86.86. The series is described as follows: Cytotoxicity against human SU-86-86 cells by MTT assay. It counts as functional, cell-based.
Series [11] is described as follows: Cytotoxicity against mouse KPC2 cells by MTT assay. It counts as functional, cell-based.
Series [12] concerns MIA PaCa-2. The series is described as follows: Cytotoxicity against human MIA PaCa-2 cells assessed as cell death up to 0.1 uM incubated for 6 days in presence of NAC. Particulars: time 6.0 day. It counts as functional, cell-based.
The next series has as its system HCT-116. The series is described as follows: Cytotoxicity against human HCT-116 cells assessed as cell death up to 1 uM incubated for 6 days in presence of NAC. It counts as functional, cell-based. Particulars: time 6.0 day.

The compound `N[C@@H]1CCCC12CCN(c1cnc(C(=O)Nc3cc(F)cc4cccnc34)cn1)CC2` showed a half-maximal inhibitory concentration (IC50) in the series with MIA PaCa-2 [1] of 1500 nM.

The compound `CN1CNC(=O)C12CCN(c1cnc(C(=O)Nc3cc(F)cc4cccnc34)cn1)CC2` showed a 50% inhibitory concentration (IC50) with MIA PaCa-2 [1] of 2900 nM. The same measure, in the same setting: to `O=C(Nc1cc(F)cc2cccnc12)c1cnc(N2CC3CC2CN3)cn1` (configuration not stated) belongs 9400 nM; to `Cc1cc(NC(=O)CNCCN2CCN(C)CC2)c2ncccc2c1`, above 30000 nM. On the same count and under the same terms, under `NC1CCC2(CC1)CN(c1cnc(C(=O)Nc3cc(F)cc4cccnc34)cn1)C2` stands 4700 nM; under `O=C(Nc1cc(F)cc2cccnc12)c1cnc(N2C[C@@H](O)CC2=O)cn1`, 4700 nM. In the series on MIA PaCa-2 [1], `NC1CCCN(c2cnc(C(=O)Nc3cc(F)cc4cccnc34)cn2)C1` (configuration not stated) gave a 50% inhibitory concentration (IC50) of 1800 nM. On the same count and under the same terms, to `NC1CC2(CCN(c3cnc(C(=O)Nc4cc(F)cc5cccnc45)cn3)CC2)C1` belongs 3000 nM; to `O=C(Nc1cc(F)cc2cccnc12)c1cnc(N2CCNC3(CC3)C2)cn1`, 800 nM; to `O=C(Nc1cc(F)cc2cccnc12)c1cnc(N2CCC(F)C2)cn1` (configuration not stated), 2800 nM. In the case of `O=C(Nc1cc(F)cc2cccnc12)c1cnc(N2CC3CC2CS3(=O)=O)cn1` (configuration not stated), the IC50 with MIA PaCa-2 [1] was found to be 1400 nM. The same measure, in the same setting: to `O=C(Nc1cc(F)cc2cccnc12)c1cnc(N2CCNC(C(F)(F)F)C2)cn1` (configuration not stated) belongs 800 nM.

Regarding `NC1C2CCC1CN(c1cnc(C(=O)Nc3cc(F)cc4cccnc34)cn1)C2` (configuration not stated), in the series on MIA PaCa-2 [1], the IC50 came out at 800 nM. The half-life in [2] and in [3] was above 60 min throughout. Also, the Activity result in series [4] is “Non-toxic”. In turn, `O=C(Nc1cc(F)cc2cccnc12)c1cnc(N2CCC(O)C2)cn1` (configuration not stated) showed a half-inhibitory concentration (IC50) in the series with MIA PaCa-2 [1] of 1000 nM. In the series on MIA PaCa-2 [1], `C[C@@H]1CN(c2cnc(C(=O)Nc3cc(F)cc4cccnc34)cn2)CCN1` came in with a concentration for half-maximal inhibition (IC50) of 500 nM. `O=C(Nc1cc(F)cc2cccnc12)c1cnc(N2CC3C(C2)C3(F)F)cn1` (configuration not stated) had a half-inhibitory concentration (IC50) in the series with MIA PaCa-2 [1] of 5400 nM. On the same count and under the same terms, under `Cc1cc(NCc2cnc(N3CCNCC3)cn2)c2ncccc2c1` stands 17600 nM; under `O=C(Nc1cc(F)cc2cccnc12)c1cnc(N2CCn3c(nnc3C(F)(F)F)C2)cn1`, 4100 nM.

`Cc1cc(NC(=O)c2cnc(N3C[C@@H]4[C@@H](N)[C@@H]4C3)cn2)c2ncccc2c1` showed a half-inhibitory concentration (IC50) with MIA PaCa-2 [1] of 500 nM. Further, in series [2], the half-life was above 60 min. Turning to `CN(C)C/C=C/C(=O)N1CCN(c2cnc(C(=O)Nc3cc(F)cc4cccnc34)cn2)CC1`, half-maximal inhibition in the series on MIA PaCa-2 [1] (IC50) was put at 4400 nM. The same measure, in the same setting: to `CC1CNCCCN1c1cnc(C(=O)Nc2cc(F)cc3cccnc23)cn1` (configuration not stated) belongs 1100 nM; to `O=C(Nc1cc(F)cc2cccnc12)c1cnc(N2CCC(O)(C(F)(F)F)CC2)cn1`, 2100 nM; to `N[C@@H]1CN(c2cnc(C(=O)Nc3cc(F)cc4cccnc34)cn2)CC12COC2`, 11600 nM.

`O=C(Nc1cc(F)cc2cccnc12)c1cnc(N2CCNCC2)cn1` yielded a half-inhibitory concentration (IC50) in the series on MIA PaCa-2 [1] of 400 nM. In addition, the figures for the half-life in series [2] and in series [3] were 1.8 min and above 60 min, respectively. As for `Cc1cc(NC(=O)c2cnc(N3CCN(C(=O)C4CC4)CC3)cn2)c2ncccc2c1`, in the series on MIA PaCa-2 [1], the concentration for half-maximal inhibition (IC50) is 1200 nM. On the same count and under the same terms, under `C[C@@H]1CNCCN1c1cnc(C(=O)Nc2cc(F)cc3cccnc23)cn1` stands 400 nM; under `O=C(Nc1cc(F)cc2cccnc12)c1cnc(N2CCOCC2)cn1`, 1000 nM; under `C[C@@H]1CN(c2cnc(C(=O)Nc3cc(F)cc4cccnc34)cn2)C[C@H](C)N1`, 300 nM.

In the series with MIA PaCa-2 [1], `CN1C2CCC1CN(c1cnc(C(=O)Nc3cc(F)cc4cccnc34)cn1)C2` returned an IC50 of 400 nM. Moreover, the half-life in [2] was 13.5 min; in series [3], above 60 min. `Cc1cc(NC(=O)c2cnc(N3CCNCC3)cn2)c2ncccc2c1` showed a concentration for half-maximal inhibition (IC50) in the series with MIA PaCa-2 [1] of 900 nM. Moreover, the half-life in series [2] came to 4 min.

In the series with MIA PaCa-2 [1], `CN1CCN(c2cnc(C(=O)Nc3cccc4ccccc34)cn2)CC1` had an IC50 above 30000 nM. Still for that read-out and setting: to `O=C(Nc1cc(F)cc2cccnc12)c1cnc(N2CCC(F)(F)CC2)cn1` belongs 3700 nM. In the series with MIA PaCa-2 [1], `C=CC(=O)N1CCN(c2cnc(C(=O)Nc3cc(C)cc4cccnc34)cn2)CC1` gave an IC50 of 900 nM. Further, the half-life in [2] came to 3 min. In the series with MIA PaCa-2 [1], `CC1(C)CN(c2cnc(C(=O)Nc3cc(F)cc4cccnc34)cn2)CCN1` registered a 50% inhibitory concentration (IC50) of 300 nM. As for `Cc1cc(NC(=O)c2cnc(N3CCC4(CC3)CO[C@@H](C)[C@H]4N)cn2)c2ncccc2c1`, the IC50 in the series with MIA PaCa-2 [1] came out at 1000 nM. Also, the half-life in series [2] was determined as 11.7 min. For `O=C(Nc1cc(F)cc2cccnc12)c1cnc(N2CCN3CCCC3C2)cn1` (configuration not stated), half-maximal inhibition in the series with MIA PaCa-2 [1] (IC50) was put at 1700 nM. Still for that read-out and setting: under `Cc1cc(C(=O)Nc2ccc(N3CCN(C)CC3)nc2)c2ncccc2c1` stands 21500 nM; under `O=C(Nc1cc(F)cc2cccnc12)c1cnc(N2CCn3cnnc3C2)cn1`, above 30000 nM; under `O=C(Nc1cc(F)cc2cccnc12)c1cnc(N2CCNC(F)C2)cn1` (configuration not stated), 3400 nM.

In the series with MIA PaCa-2 [1], `CN1CC2CC1CN2c1cnc(C(=O)Nc2cc(F)cc3cccnc23)cn1` (configuration not stated) came in with an IC50 of 100 nM. Moreover, the half-life is 10.5 min in [2] and above 60 min in series [3]. For the same compound, the Retention_time came to 6.44 min in series [5]; 6.22 min in series [6]; 6.19 min in [7]; 6.23 min in [8]; 6.23 min in [9]; 6.22 min in series [10]. In the case of `CN(NC(=O)CC(=O)NN(C)C(=S)c1ccccc1)C(=S)c1ccccc1` [ELESCLOMOL], the IC50 with MIA PaCa-2 [1] worked out at 20 nM; with PANC-1 it was 30 nM; in the series on BXPC-3 it was 50 nM; with Panc02 it was 10 nM; in the series with SU.86.86, 20 nM; in series [11], 200 nM. The outcome in the series on MIA PaCa-2 [12] was Active. As to `N[C@H]1CN(c2cnc(C(=O)Nc3cc(F)cc4cccnc34)cn2)C[C@H]1F`, the midpoint of inhibition in the series with MIA PaCa-2 [1], the IC50, lay at 300 nM. Further, the half-life in series [2] and in series [3] was above 60 min each time. In the case of `Cc1cc(NC(=O)c2ccc(N3CCN(C)CC3)cc2)c2ncccc2c1`, the IC50 in the series with MIA PaCa-2 [1] was determined as 25800 nM. Still for that read-out and setting: under `O=C(Nc1cc(F)cc2cccnc12)c1cnc(N2CCC(N3CCCC3)CC2)cn1` stands 500 nM; under `CN1CCN(c2cnc(C(=O)Nc3cc(F)cc4cccnc34)cn2)CC1`, 700 nM. On the same count and under the same terms, under `O=C(Nc1cccc2ccccc12)c1cnc(N2CCNCC2)cn1` stands above 30000 nM.

Turning to `CS(=O)(=O)N1CCN(c2cnc(C(=O)Nc3cc(F)cc4cccnc34)cn2)CC1`, in the series with MIA PaCa-2 [1], it took 3300 nM to reach half-maximal inhibition (IC50). Still for that read-out and setting: under `CCN(CC)C1CCN(c2cnc(C(=O)Nc3cc(F)cc4cccnc34)cn2)CC1` stands 500 nM; under `O=C(Nc1cc(F)cc2cccnc12)c1cnc(N2CC3CC2CO3)cn1` (configuration not stated), 900 nM. As to `CCN(CC)C(=S)SSC(=S)N(CC)CC` [DISULFIRAM], the concentration for half-maximal inhibition (IC50) stood at 100 nM in the series with MIA PaCa-2 [1]; 100 nM in the series on PANC-1; 300 nM in the series on BXPC-3; 100 nM in the series on Panc02; 300 nM in the series on SU.86.86; 200 nM in series [11]. For the same compound, the result in the series on HCT-116 was Active. For the compound `N[C@@H]1CCN(c2cnc(C(=O)Nc3cc(F)cc4cccnc34)cn2)C[C@@H]1F`, in the series on MIA PaCa-2 [1], the IC50 is 1100 nM. Same read-out and setting: under `CC1(N)CN(c2cnc(C(=O)Nc3cc(F)cc4cccnc34)cn2)C1` stands 2100 nM. Same read-out and setting: under `NC1CC2(C1)CN(c1cnc(C(=O)Nc3cc(F)cc4cccnc34)cn1)C2` stands 5500 nM; under `Cc1cc(NC(=O)c2cnc(N3CCN(S(C)(=O)=O)CC3)cn2)c2ncccc2c1`, 1000 nM.
